US8933103B2, “Pyridone derivatives” (Daiichi Sankyo Company, Limited, priority 2012, dated 2015)

Molecular target: T1, AXL (fusion protein of amino acids 464-885 of the intracellular domain of human AXL with glutathione transferase) (Homo sapiens, UniProt P30530)
T1 sequence (P30530 464-885 isoform P30530-2): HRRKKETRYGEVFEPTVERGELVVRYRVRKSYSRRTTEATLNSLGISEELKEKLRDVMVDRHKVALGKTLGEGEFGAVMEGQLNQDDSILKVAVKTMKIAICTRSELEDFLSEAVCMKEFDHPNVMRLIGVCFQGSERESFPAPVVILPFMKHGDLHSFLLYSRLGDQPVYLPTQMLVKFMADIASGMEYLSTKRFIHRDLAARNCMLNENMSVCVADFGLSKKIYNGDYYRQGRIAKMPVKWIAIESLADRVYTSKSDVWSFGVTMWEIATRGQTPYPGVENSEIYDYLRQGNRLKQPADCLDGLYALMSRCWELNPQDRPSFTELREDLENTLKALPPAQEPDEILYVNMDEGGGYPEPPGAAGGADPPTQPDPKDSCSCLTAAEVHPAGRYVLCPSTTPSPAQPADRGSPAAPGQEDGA
Assay: Cell-Free Axl Kinase Inhibitory Activity
Description: Next, the test compound was diluted with DMSO, and 1 μl of this diluted solution was added to each well.
Five microliters of this solution were added to each well to initiate a kinase reaction. The plate was incubated at 28° C. for 1.5 hours, and 40 μl of a termination buffer (100 mM HEPES (pH 7.4), 0.015% Brij-35, 40 mM EDTA, 0.1% Coating Reagent 3) was added to each well to terminate the reaction.
The substrate peptide and the phosphorylated peptide in the reaction solution were separated and quantified by EZ Reader II (Caliper Life Sciences).
IC50 was determined from inhibition data for 12 test compound concentrations by nonlinear regression (four-parameter logistic regression) using the following formula.

IC50	Compound
0.1 to 1 nM	Cc1cc(-c2cnc(N)c(-c3ccc(NC(=O)c4cn(CC(F)(F)F)cc(-c5ccc(F)cc5)c4=O)cc3)c2)ccn1 [Example 77, N-[4-(6-Amino-2′-methyl-3,4′-bipyridin-5-yl)phenyl]-5-(4-fluorophenyl)-4-oxo-1-(2,2,2-trifluoroethyl)-1,4-dihydropyridine-3-carboxamide]
1 to 10 nM	Cc1cc(-c2cnc(N)c(-c3ccc(NC(=O)c4cn(CCF)cc(-c5ccc(F)cc5)c4=O)cc3)c2)ccn1 [Example 78, N-[4-(6-Amino-2′-methyl-3,4′-bipyridin-5-yl)phenyl]-1-(2-fluoroethyl)-5-(4-fluorophenyl)-4-oxo-1,4-dihydropyridine-3-carboxamide]
0.1 to 1 nM	CC(=O)N1CC=C(c2cnc(N)c(-c3ccc(NC(=O)c4cn(CC(F)(F)F)cc(-c5ccc(F)cc5)c4=O)cc3)c2)CC1 [Example 80, N-[4-(1′-Acetyl-6-amino-1′,2′,3′,6′-tetrahydro-3,4′-bipyridin-5-yl)phenyl]-5-(4-fluorophenyl)-4-oxo-1-(2,2,2-trifluoroethyl)-1,4-dihydropyridine-3-carboxamide]
1 to 10 nM	COc1ccnc(N)c1-c1ccc(NC(=O)c2cn(CC(F)(F)F)cc(-c3ccc(F)cc3)c2=O)cc1 [Example 82, N-[4-(2-Amino-4-methoxypyridin-3-yl)phenyl]-5-(4-fluorophenyl)-4-oxo-1-(2,2,2-trifluoroethyl)-1,4-dihydropyridine-3-carboxamide]
10 to 20 nM	COc1ccnc(N)c1-c1ccc(NC(=O)c2cn(CCF)cc(-c3ccc(F)cc3)c2=O)cc1 [Example 83, N-[4-(2-Amino-4-methoxypyridin-3-yl)phenyl]-1-(2-fluoroethyl)-5-(4-fluorophenyl)-4-oxo-1,4-dihydropyridine-3-carboxamide]
0.1 to 1 nM	COc1ccnc(N)c1-c1ccc(NC(=O)c2cn(CC(F)(F)F)cc(-c3ccc(F)cc3)c2=O)cc1F [Example 85, N-[4-(2-Amino-4-methoxypyridin-3-yl)-3-fluorophenyl]-5-(4-fluorophenyl)-4-oxo-1-(2,2,2-trifluoroethyl)-1,4-dihydropyridine-3-carboxamide]
1 to 10 nM	COc1ncnc(N)c1-c1ccc(NC(=O)c2cn(CC(F)(F)F)cc(-c3ccc(F)cc3)c2=O)cc1 [Example 86, N-[4-(4-Amino-6-methoxypyrimidin-5-yl)phenyl]-5-(4-fluorophenyl)-4-oxo-1-(2,2,2-trifluoroethyl)-1,4-dihydropyridine-3-carboxamide]
1 to 10 nM	COc1ccc(-c2cnc(N)c(-c3ccc(NC(=O)c4cn(CC(F)(F)F)cc(-c5ccc(F)cc5)c4=O)cn3)c2)cc1OC [Example 87, N-[2′-Amino-5′-(3,4-dimethoxyphenyl)-2,3′-bipyridin-5-yl]-5-(4-fluorophenyl)-4-oxo-1-(2,2,2-trifluoroethyl)-1,4-dihydropyridine-3-carboxamide]
1 to 10 nM	COc1ccc(-c2cnc(N)c(-c3ccc(NC(=O)c4cn(CC(F)(F)F)cc(-c5ccc(F)cc5)c4=O)cc3)c2)cc1O [Example 88, N-{4-[2-Amino-5-(3-hydroxy-4-methoxyphenyl)pyridin-3-yl]phenyl}-5-(4-fluorophenyl)-4-oxo-1-(2,2,2-trifluoroethyl)-1,4-dihydropyridine-3-carboxamide]
